From US6185453A, “Iontophoretic delivery of integrin inhibitors” (DuPont Pharmaceuticals Company, priority 1997, dated 2001)
Values joined by “and” are separate entries in the source; they are usually repeats but may differ in a detail not shown here. Identical values can stand only once. Counter-ions that a name gives are not always drawn.

What was measured:
[1] = In vivo swine iontophoretic delivery / IV infusion, plasma concentrations (LC-MS); set-up: species or system Yorkshire swine; settings: for in vivo delivery rate: 10 mg/mL, by comparison with IV infusion of Compound B
From the text: In each experiment, the patches were loaded with drug solution immediately before application to the skin of the animals. Unanesthetized Yorkshire swine with weights from about 20 to 35 kg were used. The skin sites receiving the patches were wiped clean with moist gauze pads. Patches were overwrapped with an adhesive, elastic wrap to hold the patches in place. Separate constant current power supplies were provided for each iontophoresis patch system. Current and voltage readings were made and recorded on-board dataloggers. Blood samples were withdrawn from the vena cava through an IV catheter into VACUTAINER™ blood collection tubes containing EDTA. After gentle mixing, the tubes were centrifuged to separate the plasma, which transferred to clean polypropylene tubes and frozen on dry ice. Frozen samples were stored at -80° C. until assayed.
Compound B concentrations in plasma were determined by LC-MS. The patches used were of the monolithic design described above, and having a 2 cm^2 skin coverage area. Patches were filled with solutions containing 10-20 mg/mL Compound A and 154 mM NaCl. […], plasma concentrations of Compound B increased for the first 5-8 hours of dosing and then reached steady-state.Steady-state plasma concentrations of approximately 1-2 ng/mL were attained. After an intravenous infusion of Compound B at 10 μg/hr, steady-state plasma concentrations of Compound B were also approximately 1-2 ng/mL. Therefore, the transdermal delivery rate at steady-state was approximately 10 μg/hr.
Pigs were also dosed with patches containing 10 mg/mL of Compound A, using currents of 50 and 100 μA. In these studies four patches were used for each pig, for a total skin coverage area of 8 cm^2. […] Actual in vivo delivery rates were estimated by comparison with plasma concentrations after intravenous infusion of Compound B. The 50 μA current delivered Compound A at approximately 25 μg/hr, and the 100 μA current delivered Compound A at approximately 40 μg/hr.

[2] = In vitro excised porcine skin iontophoretic delivery (flow-through diffusion cell); assay type: in vitro ADME; settings: for Dose Delivered: 18 hours iontophoresis, 2 cm^2 patch
Experimental: The iontophoretic delivery of a representative GPIIb/IIIa inhibitor compound, Compound A, was carried out in a flow-through diffusion cell in vitro excised skin delivery system. The transdermal patch design used in these studies included an absorbent drug reservoir with 2 cm^2 active area of skin contact and a volume of 0.3 mL. The drug reservoir compartment was separated from the electrode compartment by a semi-permeable membrane with a molecular weight cutoff of 100. The electrode compartment included a silver […] and a cation exchange media in a hydrogel matrix. The drug reservoir compartment was filled with dosing solution just before application to the skin. A silver-silver chloride mesh return cathode was located upstream of the polycarbonate flow-through cells. Freshly dermatomed (1 mm) porcine skin was mounted in the cells on a porous support polyethylene. The patches included an absorbent reservoir in contact with silver and silver chloride electrodes. They were dosed with aqueous solutions of the drug and then placed on top of the excised skin. The patches were secured by a spring loaded mechanism which maintained even pressure over the patch. The cells were "perfused" by means of a peristaltic pump which pulls receiver solution through them. Effluents from the cells were collected with a fraction collector. Flow rates were typically 0.25 mL/min. The receiver solution was an isotonic pH 7.4 buffered saline solution containing 10 mM HEPES, 100 mM NaCl, PEG 400, and a surfactant, Pluronic P-103. Iontophoresis current was provided by a constant current power supplies, and the applied currents and cell voltages were recorded with a data logger. The flux profile vs. time and the cumulative dose delivered with 18 hours of iontophoresis were determined. This was followed by 3 hours where no current was applied. Concentrations of Compound A were determined using a radiolabeled marker or by HPLC. A study was performed using applied currents of 0-800 μA, and concentrations of Compound A in the patch of 50 or 100 mg/mL. Additional studies were performed using lower applied currents, lower concentrations of Compound A in the patch, and dosing solutions containing various concentrations of NaCl. […] At 100 μA the delivery rate of Compound A was approximately 10 μg/hr for the 2 cm^2 surface area, which was also within the targeted range. An alternative patch design, a monolithic patch rather than the membrane separated patch, was also tested. This patch is composed of two layers of absorbent material between which is sandwiched a silver anode.

[3] = iontophoresis of 10 mg/mL Compound A, 50 and 100 μA, four patches (8 cm^2)

## CCCCOC(=O)N[C@@H](CNC(=O)C[C@H]1CC(c2ccc(C(=N)N)cc2)=NO1)C(=O)OC [Compound A, methyl-N^3-[2-{3-(4-formamidinophenyl)-isoxazolin-5(R)-yl}-acetyl]-N^2-(n-butyloxycarbonyl)-2,3-(S)-diaminopropionate methanesulfonate salt]
[1]; 20 mg/mL Compound A, 100 μA, 2 cm^2, by comparison with IV infusion
  transdermal delivery rate at steady-state: approximately 10 μg/hr
[1]; 20 mg/mL, 154 mM NaCl, 200 μA, 2 cm^2 vs IV 10 μg/h
  blood levels, iontophoresis (FIG. 5) compared with constant IV infusion of Compound B (FIG. 4): similar
[1]; 50 μA, four patches (8 cm^2)
  in vivo delivery rate: approximately 25 μg/hr
[1]; 100 μA, four patches (8 cm^2)
  in vivo delivery rate: approximately 40 μg/hr
[1]; FIG. 5, 20 mg/mL, 154 mM NaCl, 200 μA, 2 cm^2
  variability in plasma levels with iontophoresis: extremely low
[1]; in vivo
  in vivo conversion to acid form (Compound B): rapidly converted to its acid form
[2]
  skin permeation: very low skin permeation
[2]; 0 μA, 100 mg/mL Compound A (as salt), methanesulfonate salt
  Dose Delivered: 0.2 mg and 0.1 mg
[2]; 10 mg/mL Compound A, 154 mM NaCl, 0, 25, 50, and 100 μA
  transdermal delivery rates versus applied current: proportional to the applied current
[2]; 50 or 100 mg/mL Compound A, iontophoresis
  time to maximum delivery: about 5 hours
[2]; 100 μA, 10 mg/mL Compound A, 154 mM NaCl, 2 cm^2
  delivery rate: approximately 10 μg/hr
[2]; 200 μA, 100 mg/mL Compound A (as salt), methanesulfonate salt
  Dose Delivered: 1.2 mg and 1.1 mg and 1.0 mg
[2]; 400 μA, 50 mg/mL Compound A (as salt)
  Dose Delivered: 1.1 mg
[2]; 800 μA, 50 mg/mL Compound A (as salt), methanesulfonate salt
  Dose Delivered: 2.1 mg and 2.3 mg
[2]; FIG. 2, 10 mg/mL, 154 mM NaCl, 50 μA
  variability in delivery from skin to skin: extremely low
[2]; FIG. 3, 10 mg/mL, 9 mg/mL NaCl, 0-100 μA
  in vitro delivery versus current: proportional to increase in current
[2]; for any specified drug concentration and applied current
  consistency of delivery: generally very consistent
[2]; in the presence of the applied current
  transdermal delivery: greatly increased
[2]; when the current was turned off
  delivery rates: very low levels
[2]; within the target range, 50 or 100 mg/mL Compound A
  dosing rates: 5 to 250 µg/h

## CCCCOC(=O)N[C@@H](CNC(=O)C[C@H]1CC(c2ccc(C(=N)N)cc2)=NO1)C(=O)O [Compound B, N^3-[2-{3-(4-formamidinophenyl)-isoxazolin-5(R)-yl}-acetyl]-N^2-(n-butyloxycarbonyl)-2,3-(S)-diaminopropanoic acid]
[1]; approximately, intravenous infusion of Compound B at 10 μg/hr
  steady-state plasma concentrations: 1 to 2 ng/mL
[1]; [3]
  period of plasma concentration increase before apparent steady-state: first several hours
  plasma concentrations during 24 hours of iontophoretic dosing: fairly constant
  plasma concentrations versus applied current: proportional to the applied current
[1]; iontophoresis of 20 mg/mL Compound A, 100 μA, 2 cm^2
  time during which plasma concentrations increased before steady-state: 5 to 8 h
